Data from ChEMBL document CHEMBL6153135, “Rational Design of a Potent, Selective, and Metabolically Stable CDK9 Inhibitor to Counteract Osimertinib Resistance through Mcl-1 Suppression and Enhanced BRD4 Co-Targeting” (J Med Chem, 2025).
Activity calls are given as the source filed them. No cut-off for these calls is given here.

Key:
[1] = molecular target: Cyclin-dependent kinase 9 (Homo sapiens) (UniProt P50750); test: Inhibition of CDK9 in human Osimertinib-resistant HCC827 cells assessed as decrease in Mcl-1 mRNA level in presence of JQ1 by RNA-Seq analysis; type: cell-based; details: Osimertinib-resistant HCC827 cell
[2] = Anti-proliferative activity against human Osimertinib-resistant HCC827 cells assessed as cell inhibition measured after 72 hrs in presence of 500 nM JQ1 by MTT assay; type: functional, cell-based
[3] = AUC (0 to t) in Sprague-Dawley rat at 20 mg/kg, po; type: ADME, organism-based; details: in vivo
NCI-H1975 [4] = test: Antitumor activity against human NCI-H1975 cells xenografted in BALB-c nude mouse assessed as tumor growth inhibition at 5 mg/kg, iv in presence of JQ1 relative to control; type: functional; details: read-out: TGI
[5] = Oral bioavailability in BALB/c mouse at 15 mg/kg; type: ADME, organism-based; details: in vivo
[6] = system: Lung adenocarcinoma organoid; test: Anti-tumor activity against multidrug-resistant patient (#2422)-derived human Lung adenocarcinoma organoid assessed as inhibition of cell viability measured after 96 hrs; type: functional, tissue-based; details: Neoplasm
NCI-H1299 = test: Anti-proliferative activity against human NCI-H1299 cells assessed as cell inhibition measured after 72 hrs by MTT assay; type: functional, cell-based; details: NCI-H1299, 72 h
Mus musculus [7] = test: In vivo inhibition of CDK9 in BALB-c nude mouse xenografted with human Osimertinib-resistant HCC827 cells assessed as decrease in Mcl-1 level in tumor tissue at 5 mg/kg, iv in presence of JQ1 by Western blot analysis; type: functional, organism-based
[8] = Toxicity in BALB-c nude mouse xenografted with human NCI-H1975 cells assessed as pathological damage in liver at 15 mg/kg, iv administered on every two days by H and E staining based analysis; type: organism-based; details: in vivo
[9] = Cmax in BALB/c mouse at 15 mg/kg, po; details: in vivo
[10] = AUC (0 to t) in BALB/c mouse at 2 mg/kg, iv; type: ADME, organism-based; details: in vivo
[11] = molecular target: Homeodomain-interacting protein kinase 1 (Homo sapiens) (UniProt Q86Z02); test: Inhibition of HIPK1 (unknown origin) at 100 nM preincubated for 10 mins followed by substrate/ATP measured after 60 mins by ADP-Glo assay relative to control; details: time 70.0 min
Mus musculus [12] = test: In vivo downregulation of c-Myc level in tumor tissue of BALB-c nude mouse xenografted with human Osimertinib-resistant HCC827 cells at 5 mg/kg, iv in presence of JQ1 by Western blot analysis; type: functional, organism-based
[13] = Cmax in Sprague-Dawley rat at 20 mg/kg, po; details: in vivo
HCC827 = test: Anti-proliferative activity against human HCC827 cells assessed as cell inhibition measured after 72 hrs by MTT assay; type: functional, cell-based; details: HCC827, 72 h
[14] = Metabolic stability in human liver microsomes assessed as half life measured for 5 to 60 mins by LC-MS/MS analysis; type: ADME, Microsome; details: time 5-60 min
[15] = molecular target: Homeodomain-interacting protein kinase 2 (Homo sapiens) (UniProt Q9H2X6); test: Inhibition of HIPK2 (unknown origin) at 100 nM preincubated for 10 mins followed by substrate/ATP measured after 60 mins by ADP-Glo assay relative to control; details: time 70.0 min
[16] = system: Lung adenocarcinoma organoid; test: Anti-tumor activity against Almonertinib-resistant patient (#2566)-derived human Lung adenocarcinoma organoid assessed as inhibition of cell viability measured after 96 hrs; type: functional, tissue-based; details: Neoplasm
[17] = Toxicity in BALB-c nude mouse xenografted with human NCI-H1975 cells assessed as pathological damage in kidney at 15 mg/kg, iv administered on every two days by H and E staining based analysis; type: organism-based; details: in vivo
PC-9 = test: Anti-proliferative activity against human PC-9 cells assessed as cell inhibition measured after 72 hrs by MTT assay; type: functional, cell-based; details: PC-9, 72 h
Homo sapiens = species: Homo sapiens; test: Inhibition of CDK12/Cyclin E1(unknown origin) at 100 nM preincubated for 10 mins followed by substrate/ATP measured after 60 mins by ADP-Glo assay relative to control; details: time 70.0 min
[18] = molecular target: Cyclin-dependent kinase 9 (Homo sapiens) (UniProt P50750); test: Inhibition of CDK9 in human Osimertinib-resistant HCC827 cells assessed as decrease in Mcl-1 level at 100 to 500 nM incubated for 12 hrs by Western blot analysis; type: cell-based; details: Osimertinib-resistant HCC827 cell, dose 100-500 nM
[19] = AUC (0 to infinity) in BALB/c mouse at 2 mg/kg, iv; type: ADME, organism-based; details: in vivo
NCI-H596 = test: Anti-proliferative activity against human NCI-H596 cells assessed as cell inhibition measured after 72 hrs by MTT assay; type: functional, cell-based; details: NCI-H596, 72 h
[20] = system: Osimertinib-resistant NCI-H1975 cell; test: Induction of apoptosis in human Osimertinib-resistant NCI-H1975 cells assessed as necrotic cells at 2 uM incubated for 16 hrs by Annexin V-FITC/PI staining based flow cytometry (reference value: 1.17 %); type: functional
[21] = molecular target: CDK18/Cyclin Y (Homo sapiens) (UniProt Q07002+Q8ND76); test: Inhibition of CDK18/Cyclin Y(unknown origin) at 100 nM preincubated for 10 mins followed by substrate/ATP measured after 60 mins by ADP-Glo assay relative to control; type: protein-complex assay; details: time 70.0 min
[22] = system: Osimertinib-resistant NCI-H1975 cell; test: Induction of apoptosis in human Osimertinib-resistant NCI-H1975 cells assessed as late apoptotic cells at 2 uM incubated for 16 hrs by Annexin V-FITC/PI staining based flow cytometry (reference value: 1.42 %); type: functional
[23] = Metabolic stability in human liver S9 fraction assessed as clearance measured for 5 to 60 mins by LC-MS/MS analysis; type: ADME, subcellular; details: time 5-60 min, read-out: CLH
[24] = Anti-proliferative activity against human Osimertinib-resistant HCC827 cells assessed as cell inhibition measured after 72 hrs in presence of 250 nM JQ1 by MTT assay; type: functional, cell-based
[25] = Anti-proliferative activity against human Osimertinib-resistant HCC827 cells assessed as cell inhibition measured after 72 hrs by MTT assay; type: functional, cell-based
[26] = Metabolic stability in monkey liver microsomes assessed as half life measured for 5 to 60 mins by LC-MS/MS analysis; type: ADME, Macaca mulatta, Microsome; details: rhesus monkey, time 5-60 min
[27] = system: Osimertinib-resistant NCI-H1975 cell; test: Anti-proliferative activity against human Osimertinib-resistant NCI-H1975 cells assessed as cell inhibition measured after 72 hrs by MTT assay; type: functional, cell-based
NCI-H1975 [28] = test: Anti-proliferative activity against human NCI-H1975 cells assessed as cell inhibition measured after 72 hrs in presence of 100 nM JQ1 by MTT assay; type: functional, cell-based; details: NCI-H1975, 72 h
[29] = system: Lung adenocarcinoma organoid; test: Anti-tumor activity against Osimertinib-resistant patient (#0085)-derived human Lung adenocarcinoma organoid assessed as inhibition of cell viability measured after 96 hrs relative to control; type: functional, Neoplasm
[30] = Apparent volume of distribution in BALB/c mouse at 15 mg/kg, po; type: ADME, organism-based; details: in vivo
[31] = Tmax in Sprague-Dawley rat at 20 mg/kg, po; type: ADME, organism-based; details: in vivo
[32] = molecular target: Cyclin-dependent kinase 9 (Homo sapiens) (UniProt P50750); test: Inhibition of CDK9 in human Osimertinib-resistant NCI-H1975 cells assessed as decrease in Mcl-1 level incubated for 12 hrs by Western blot analysis; type: cell-based; details: Osimertinib-resistant NCI-H1975 cell, dose 50-500 nM

Chain of Cyclin-dependent kinase 9 (Homo sapiens) (P50750 whole entry): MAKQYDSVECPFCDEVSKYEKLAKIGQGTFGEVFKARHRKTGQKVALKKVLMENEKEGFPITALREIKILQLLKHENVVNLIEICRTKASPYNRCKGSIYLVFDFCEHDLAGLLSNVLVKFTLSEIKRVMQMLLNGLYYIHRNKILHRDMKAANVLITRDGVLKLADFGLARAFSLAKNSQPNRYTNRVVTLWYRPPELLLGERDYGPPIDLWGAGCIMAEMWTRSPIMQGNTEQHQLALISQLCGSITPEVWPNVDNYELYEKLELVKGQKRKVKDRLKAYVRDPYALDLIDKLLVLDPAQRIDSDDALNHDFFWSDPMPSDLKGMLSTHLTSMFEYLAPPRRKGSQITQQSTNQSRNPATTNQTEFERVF
Chain of Homeodomain-interacting protein kinase 2 (Homo sapiens) (Q9H2X6 whole entry, looked up): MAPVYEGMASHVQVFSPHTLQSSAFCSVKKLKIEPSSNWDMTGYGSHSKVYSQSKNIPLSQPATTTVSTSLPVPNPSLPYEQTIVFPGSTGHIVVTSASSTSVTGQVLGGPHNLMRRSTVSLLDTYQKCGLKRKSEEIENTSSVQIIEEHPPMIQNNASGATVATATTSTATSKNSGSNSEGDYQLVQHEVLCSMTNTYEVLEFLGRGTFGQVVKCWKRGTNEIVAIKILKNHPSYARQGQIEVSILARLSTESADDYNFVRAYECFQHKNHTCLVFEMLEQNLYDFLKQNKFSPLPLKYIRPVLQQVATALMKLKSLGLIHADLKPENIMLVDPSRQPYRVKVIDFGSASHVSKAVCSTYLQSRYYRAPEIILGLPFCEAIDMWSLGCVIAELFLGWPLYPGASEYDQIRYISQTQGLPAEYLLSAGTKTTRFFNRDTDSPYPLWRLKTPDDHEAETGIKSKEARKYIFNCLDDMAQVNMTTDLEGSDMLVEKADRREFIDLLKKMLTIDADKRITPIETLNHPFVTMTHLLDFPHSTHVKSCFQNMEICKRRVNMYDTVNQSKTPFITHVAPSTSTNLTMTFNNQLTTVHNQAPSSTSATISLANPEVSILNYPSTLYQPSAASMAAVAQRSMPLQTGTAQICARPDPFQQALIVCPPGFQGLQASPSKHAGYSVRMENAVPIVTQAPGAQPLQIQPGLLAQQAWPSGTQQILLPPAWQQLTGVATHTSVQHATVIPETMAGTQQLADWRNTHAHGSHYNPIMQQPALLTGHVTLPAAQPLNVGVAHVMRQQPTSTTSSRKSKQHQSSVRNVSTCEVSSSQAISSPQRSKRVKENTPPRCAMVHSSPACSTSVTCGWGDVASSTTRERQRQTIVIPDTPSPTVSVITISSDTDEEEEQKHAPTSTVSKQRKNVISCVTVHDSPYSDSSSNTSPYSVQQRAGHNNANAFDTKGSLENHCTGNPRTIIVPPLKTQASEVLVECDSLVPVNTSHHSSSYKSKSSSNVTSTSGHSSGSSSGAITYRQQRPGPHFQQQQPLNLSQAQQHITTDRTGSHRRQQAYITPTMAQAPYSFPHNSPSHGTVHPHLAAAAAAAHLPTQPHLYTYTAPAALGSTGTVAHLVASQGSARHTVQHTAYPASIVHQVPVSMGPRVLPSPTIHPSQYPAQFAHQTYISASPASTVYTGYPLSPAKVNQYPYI
Chain of Homeodomain-interacting protein kinase 1 (Homo sapiens) (Q86Z02 whole entry, looked up): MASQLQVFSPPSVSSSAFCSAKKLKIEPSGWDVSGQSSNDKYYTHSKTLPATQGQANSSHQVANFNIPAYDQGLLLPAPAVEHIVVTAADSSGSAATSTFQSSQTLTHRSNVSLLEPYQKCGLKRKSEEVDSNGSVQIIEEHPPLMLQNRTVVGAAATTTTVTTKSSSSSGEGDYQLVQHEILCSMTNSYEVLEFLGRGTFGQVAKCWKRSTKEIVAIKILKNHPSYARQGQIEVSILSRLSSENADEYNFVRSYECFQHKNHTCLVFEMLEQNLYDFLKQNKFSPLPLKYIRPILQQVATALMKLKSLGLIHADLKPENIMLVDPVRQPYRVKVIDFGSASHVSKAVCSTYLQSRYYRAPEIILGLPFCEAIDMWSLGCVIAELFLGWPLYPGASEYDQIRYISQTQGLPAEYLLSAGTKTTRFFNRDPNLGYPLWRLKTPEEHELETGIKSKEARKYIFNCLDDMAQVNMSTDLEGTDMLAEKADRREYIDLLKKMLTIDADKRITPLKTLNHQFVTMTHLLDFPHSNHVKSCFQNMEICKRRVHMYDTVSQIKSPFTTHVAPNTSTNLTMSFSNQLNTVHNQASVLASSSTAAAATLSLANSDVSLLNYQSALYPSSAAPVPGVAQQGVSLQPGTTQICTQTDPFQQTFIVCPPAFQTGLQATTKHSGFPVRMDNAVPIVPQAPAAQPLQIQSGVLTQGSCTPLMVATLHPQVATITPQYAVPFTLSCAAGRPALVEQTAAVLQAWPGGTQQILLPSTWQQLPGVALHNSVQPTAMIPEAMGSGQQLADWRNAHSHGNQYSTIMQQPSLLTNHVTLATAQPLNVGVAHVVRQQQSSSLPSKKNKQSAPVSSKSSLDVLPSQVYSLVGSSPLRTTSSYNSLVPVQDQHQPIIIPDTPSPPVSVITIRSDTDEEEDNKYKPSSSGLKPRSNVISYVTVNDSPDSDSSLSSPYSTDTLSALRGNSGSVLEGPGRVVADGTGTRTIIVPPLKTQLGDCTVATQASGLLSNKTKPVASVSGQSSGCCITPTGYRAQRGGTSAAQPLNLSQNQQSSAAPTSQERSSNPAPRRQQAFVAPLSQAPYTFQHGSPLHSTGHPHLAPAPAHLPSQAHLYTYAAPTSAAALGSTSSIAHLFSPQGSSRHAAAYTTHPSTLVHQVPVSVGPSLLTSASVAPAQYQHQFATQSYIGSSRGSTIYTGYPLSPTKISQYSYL

- inhibition [1]: Active
- AUC(0-t) [3]: 3610 ng·h/mL
- bioavailability [5]: 25.8%
- IC50 [6]: 0.121 µM
- IC50 (NCI-H1299): 0.07 µM
- Cmax [9]: 344.1 ng/mL
- AUC(0-t) [10]: 380 ng·h/mL
- inhibition [11]: 88.5%
- Cmax [13]: 775.6 ng/mL
- IC50 (HCC827): 0.15 µM
- half-life [14]: 128 min
- inhibition [15]: 96%
- IC50 [16]: 0.0483 µM
- IC50 (PC-9): 0.14 µM
- inhibition (Homo sapiens): 23.7%
- inhibition [18]: Active
- AUC(0-inf) [19]: 396 ng·h/mL
- IC50 (NCI-H596): 0.09 µM
- inhibition [21]: 5.98%
- microsomal CLint [23]: 14.2 µL/min/mg
- half-life [26]: 59.1 min
- IC50 [27]: 0.05 µM
- IC50 (NCI-H1975 [28]): 0.133 µM
- Vz [30]: 109.3 L/kg
- Tmax [31]: 49.8 min
- inhibition [32]: Dose-dependent-effect
Compound: CC(=O)N1CCC(NC(=O)c2ccc3cc2OCCCCCCOc2cc(ccc2F)-c2nc(ncc2F)N3)CC1
- IC50 [2]: 0.0052 µM
- inhibition in vivo at 5 mg/kg (NCI-H1975 [4]): 60%
- inhibition (Mus musculus [7]): Active
- Activity [8]: Non-toxic
- Activity (Mus musculus [12]): Active
- Activity [17]: Non-toxic
- Activity [20]: 0.97%
- Activity [22]: 22%
- IC50 [24]: 0.0123 µM
- IC50 [25]: 0.0639 µM
- Imax [29]: >98%
